From PubChem BioAssay (NCI) come the findings set out here.

Some test systems named below: KM12 colon; SK-OV-3 ovarian; HCT-15 colon; SNB-19 CNS; MALME-3M melanoma; A549 NSCLC; MDA-MB-435; HCC-2998 colon; MDA-MB-231 breast; T-47D breast.
Holding throughout (test): NCI tumour cell line growth inhibition, 48 h

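Where inhibition never reached the appropriate level, the endpoint shown equals the highest concentration tested. Otherwise, values were interpolated linearly from a five-concentration, 48-hour dose response in 96-well plates. GI50 marks 50% less growth. Definition used: TGI = concentration required for complete inhibition of growth.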 Some results are limits rather than exact numbers.

For `O=C(c1ccc(Cl)cc1)N(C(=S)N1CCN(c2ccccn2)CC1)C1CCCCC1`, the TGI in the assay on KM12 colon, with SK-OV-3 ovarian, with HCT-15 colon, with SNB-19 CNS, with MALME-3M melanoma and in the assay with A549 NSCLC was over 100 µM throughout.

Regarding `Nc1[nH]nc2nc3ccccc3nc12`, the TGI in the assay on MDA-MB-435, with HCC-2998 colon, in the assay on SK-OV-3 ovarian, in the assay with MDA-MB-231 breast, with HCT-15 colon and in the assay on SNB-19 CNS was over 100 µM throughout. The TGI in the assay on MALME-3M melanoma and in the assay with A549 NSCLC was over 100 µM throughout.

On to `Clc1cccc(NN=Nc2ccc(-c3nc4ccccc4s3)cc2)c1`, for which the TGI with MDA-MB-435, in the assay on HCC-2998 colon, in the assay on KM12 colon, in the assay on SK-OV-3 ovarian, with T-47D breast and with HCT-15 colon was over 100 µM in each case. Besides, the TGI in the assay on SNB-19 CNS is over 100 µM; in the assay with MALME-3M melanoma, 88.2 µM; in the assay on A549 NSCLC, over 100 µM.

As to `CCOC(=O)NC(OC)(C(F)(F)F)C(F)(F)F`, the TGI with MDA-MB-435, in the assay on HCC-2998 colon, with SK-OV-3 ovarian, in the assay on MDA-MB-231 breast, in the assay with HCT-15 colon and in the assay on SNB-19 CNS was over 100 µM in each case. Also, the TGI with MALME-3M melanoma and in the assay on A549 NSCLC was over 100 µM in each case.

In the case of `NC1=NS(=O)(=O)Nc2nc(-c3ccccc3)[nH]c21`, the TGI with HCC-2998 colon, in the assay with KM12 colon, in the assay on SK-OV-3 ovarian, with HCT-15 colon, in the assay on SNB-19 CNS and in the assay on MALME-3M melanoma was over 100 µM throughout. In the assay on A549 NSCLC, the TGI is over 100 µM.

In the case of `C=C(NC(=O)C(=C)NC(=O)c1csc(C2=NC3c4csc(n4)C4NC(=O)c5csc(n5)C(C(C)(O)C(C)O)NC(=O)C5CSC(=N5)/C(=C/C)NC(=O)C(C(C)O)NC(=O)c5csc(n5)C3(CC2)NC(=O)C(C)NC(=O)C(=C)NC(=O)C(C)NC(=O)C(C(C)CC)NC2C=Cc3c(C(C)O)cc(nc3C2O)C(=O)OC4C)n1)C(N)=O` (centres undefined), the TGI is over 39.9 µM in the assay with HCC-2998 colon; over 67.8 µM in the assay with SK-OV-3 ovarian; over 34 µM with HCT-15 colon; 8.28 µM with SNB-19 CNS; 3.99 µM in the assay with MALME-3M melanoma; 58.4 µM in the assay with A549 NSCLC.

With `COc1ccc([C@@H]2CC(=O)N2)cc1`, the TGI with KM12 colon, with SK-OV-3 ovarian, with HCT-15 colon, with SNB-19 CNS, with MALME-3M melanoma and in the assay on A549 NSCLC was over 100 µM throughout.

`O=C(O)c1ccc(C2=Cc3cc(Cl)ccc3OC2)cc1`: the TGI in the assay on HCC-2998 colon, with KM12 colon, with SK-OV-3 ovarian, with HCT-15 colon, with SNB-19 CNS and in the assay on MALME-3M melanoma was over 100 µM in each case. The compound also had a TGI in the assay with A549 NSCLC of over 100 µM.

In the case of `C=C1C(=O)O[C@@H]2[C@H](O)[C@@H](C)[C@@H]3C=CC(=O)[C@@]3(C)[C@@H](OC(=O)/C(C)=C/C)[C@H]12`, the TGI in the assay with HCC-2998 colon came out at 4.19 µM; in the assay with KM12 colon, 7.21 µM; in the assay with SK-OV-3 ovarian, 14.1 µM; with HCT-15 colon, 1.06 µM; in the assay on SNB-19 CNS, 6.92 µM; in the assay with MALME-3M melanoma, 1.49 µM. This compound also came in with a TGI in the assay with A549 NSCLC of 13.4 µM.

For the compound `O=[N+]([O-])C(/C=N/Nc1ccccc1)/C=N/Nc1ccccc1`, the TGI with HCC-2998 colon, in the assay with KM12 colon, in the assay with SK-OV-3 ovarian, in the assay with HCT-15 colon, in the assay with SNB-19 CNS and with MALME-3M melanoma was over 100 µM each time. The compound further displayed a TGI with A549 NSCLC of over 100 µM.

As to `C/C=C1\CN(C(=O)OC(C)(C)C)C1C(=O)OC(C)(C)C` (centres undefined), the TGI with MDA-MB-435, with HCC-2998 colon, in the assay on SK-OV-3 ovarian, in the assay on HCT-15 colon, in the assay on SNB-19 CNS and with MALME-3M melanoma was over 100 µM each time. This compound displayed a TGI in the assay with A549 NSCLC of over 100 µM.

As to `CC1(C)CCC(C)(C)C1C(=O)NC(O)C(=O)O` (centres undefined), the TGI in the assay with MDA-MB-435, in the assay on HCC-2998 colon, in the assay on SK-OV-3 ovarian, in the assay on MDA-MB-231 breast, in the assay on T-47D breast and with HCT-15 colon was over 100 µM throughout. For the same compound, the TGI in the assay on SNB-19 CNS and in the assay with A549 NSCLC was over 100 µM in each case.

With `Cn1ncc2c(Cl)ncnc21`, the TGI with MDA-MB-435, in the assay with HCC-2998 colon, with KM12 colon, in the assay with SK-OV-3 ovarian, with T-47D breast and with HCT-15 colon was over 100 µM throughout. Besides, the TGI with SNB-19 CNS and with A549 NSCLC was over 100 µM each time.

For `COc1c2c(c3ccccc3c1O)C1C=CC2C1` (centres undefined), the TGI in the assay with HCC-2998 colon is 29.7 µM; in the assay on KM12 colon it was 31.4 µM; in the assay on HCT-15 colon, 22 µM; in the assay on MALME-3M melanoma, 18.8 µM; with A549 NSCLC, 36.6 µM.

As for `CC(C)(C)OC(=O)CN1CCNCCN(CC(=O)OC(C)(C)C)CCNCC1`, the TGI with MDA-MB-435, in the assay with HCC-2998 colon, in the assay on KM12 colon, with SK-OV-3 ovarian, in the assay with MDA-MB-231 breast and in the assay on HCT-15 colon was over 100 µM in each case. Besides, the TGI with SNB-19 CNS and in the assay with A549 NSCLC was over 100 µM throughout.

On to `Cc1ccc(C2=C(C#N)C(N)OC3=C2COc2ccccc23)cc1` (centres undefined), for which the TGI was over 100 µM in the assay on MDA-MB-435; over 100 µM in the assay on HCC-2998 colon; over 100 µM with KM12 colon; 67.9 µM in the assay on SK-OV-3 ovarian; over 100 µM in the assay with MDA-MB-231 breast; over 100 µM in the assay on HCT-15 colon. In addition, the results for the TGI with SNB-19 CNS, with MALME-3M melanoma and in the assay with A549 NSCLC were 41.9 µM, 82.1 µM and over 100 µM, respectively.

As for `Cc1n[nH]c(=O)n1/N=C\c1ccccc1`, the TGI in the assay on MDA-MB-435, with HCC-2998 colon, with KM12 colon, with MDA-MB-231 breast, in the assay on HCT-15 colon and in the assay on MALME-3M melanoma was over 100 µM in each case. In the assay on A549 NSCLC, this compound showed a TGI of over 100 µM.

For the compound `O=C(N=c1ccc2nc(=O)[nH]n(O)c-2c1)C(F)(F)F`, the TGI with MDA-MB-435, with KM12 colon, with SK-OV-3 ovarian, in the assay on MDA-MB-231 breast, in the assay on T-47D breast and in the assay on HCT-15 colon was over 100 µM throughout. Moreover, the TGI in the assay on SNB-19 CNS and with A549 NSCLC was over 100 µM each time.

Consider `O=C(c1ccccc1)C1S(=O)(=O)OCCOS1(=O)=O`, for which the TGI in the assay with HCC-2998 colon, with KM12 colon, with SK-OV-3 ovarian, in the assay with SNB-19 CNS, with MALME-3M melanoma and in the assay on A549 NSCLC was over 100 µM in each case.

Consider `CCN(CC)CCN1C(=O)c2c(c3c4ccccc4[nH]c3c3ccc4ccccc4c23)C1=O`, for which the GI50 in the assay on MDA-MB-435 was 1.77 µM; in the assay on HCC-2998 colon it was 1.53 µM; in the assay on KM12 colon, 1.74 µM; in the assay on SK-OV-3 ovarian, 1.57 µM; with T-47D breast it was 13 µM; in the assay on SNB-19 CNS, 1.5 µM. Also, the GI50 with MALME-3M melanoma is 1.79 µM. Also, the TGI in the assay on MDA-MB-435 was 3.17 µM; in the assay on HCC-2998 colon, 3.08 µM; in the assay on KM12 colon, 3.22 µM; in the assay with SK-OV-3 ovarian, 3.01 µM; with T-47D breast, 38.9 µM; with SNB-19 CNS, 2.88 µM. The compound also had a TGI in the assay with MALME-3M melanoma of 3.46 µM.

`C=C1C(O)C[C@H](OC(C)=O)[C@]2(C)C1C(OC(C)=O)[C@]1(C(C)(C)O)CC(O)C(C)=C1[C@@H](OC(=O)c1ccccc1)C2OC(C)=O` (some centres undefined): the TGI with MDA-MB-435, in the assay on KM12 colon, in the assay with SK-OV-3 ovarian, in the assay with MDA-MB-231 breast, with T-47D breast and in the assay on HCT-15 colon was over 10 µM each time. The TGI in the assay on SNB-19 CNS and in the assay with A549 NSCLC was over 10 µM throughout.

Take `O=C1/C=C(/c2ccc(O)cc2)[C@@H](O)Cc2ccc(O)cc2O1`: the TGI in the assay on KM12 colon, in the assay with SK-OV-3 ovarian, in the assay on HCT-15 colon, in the assay with SNB-19 CNS, in the assay with MALME-3M melanoma and in the assay with A549 NSCLC was over 100 µM in each case.

On to `CCOC(=O)C(Cc1c[nH]c2cc([N+](=O)[O-])ccc12)NS(=O)(=O)c1ccc2ccccc2c1` (centres undefined), for which the TGI in the assay with HCC-2998 colon is 49.4 µM; in the assay on KM12 colon, 30.8 µM; in the assay on SK-OV-3 ovarian it was 68.6 µM; with HCT-15 colon it was 41.2 µM; in the assay with SNB-19 CNS it was over 100 µM; in the assay on A549 NSCLC it was over 100 µM.

`CC(=O)Oc1ccc2c(c1)CC[C@@H]1C2[C@@H](O[N+](=O)[O-])C[C@@]2(C)C1CC[C@@H]2O[N+](=O)[O-]` (some centres undefined): the TGI stood at 33.5 µM with MDA-MB-435; 25.9 µM in the assay on HCC-2998 colon; 33.4 µM in the assay with KM12 colon; 26.8 µM in the assay on T-47D breast; 28.1 µM with HCT-15 colon; 32.4 µM with SNB-19 CNS. The results for the TGI with MALME-3M melanoma and in the assay with A549 NSCLC were 28.8 µM and 29.1 µM, respectively.
